According to PMC4148167 (Journal of Medicinal Chemistry, 2014):
Values after ≈ are worked out from the molar mass of the structure shown.

Tests used:
A549 NSCLC cells = assay: soft agar colony formation, A549; type: cell-based; conditions: 2 weeks, negative control 20 at 300 nM
Mer = biological target: T1, Mer (Homo sapiens, UniProt Q12866); assay: pharmacodynamic study: Mer phosphorylation in bone marrow leukemia cells in vivo; parameters: species or system NOD/SCID/gamma mice with 697 human leukemia xenografts; conditions: single 3 mg/kg oral dose, 30 min after dosing
T1 sequence (Q12866 21-999): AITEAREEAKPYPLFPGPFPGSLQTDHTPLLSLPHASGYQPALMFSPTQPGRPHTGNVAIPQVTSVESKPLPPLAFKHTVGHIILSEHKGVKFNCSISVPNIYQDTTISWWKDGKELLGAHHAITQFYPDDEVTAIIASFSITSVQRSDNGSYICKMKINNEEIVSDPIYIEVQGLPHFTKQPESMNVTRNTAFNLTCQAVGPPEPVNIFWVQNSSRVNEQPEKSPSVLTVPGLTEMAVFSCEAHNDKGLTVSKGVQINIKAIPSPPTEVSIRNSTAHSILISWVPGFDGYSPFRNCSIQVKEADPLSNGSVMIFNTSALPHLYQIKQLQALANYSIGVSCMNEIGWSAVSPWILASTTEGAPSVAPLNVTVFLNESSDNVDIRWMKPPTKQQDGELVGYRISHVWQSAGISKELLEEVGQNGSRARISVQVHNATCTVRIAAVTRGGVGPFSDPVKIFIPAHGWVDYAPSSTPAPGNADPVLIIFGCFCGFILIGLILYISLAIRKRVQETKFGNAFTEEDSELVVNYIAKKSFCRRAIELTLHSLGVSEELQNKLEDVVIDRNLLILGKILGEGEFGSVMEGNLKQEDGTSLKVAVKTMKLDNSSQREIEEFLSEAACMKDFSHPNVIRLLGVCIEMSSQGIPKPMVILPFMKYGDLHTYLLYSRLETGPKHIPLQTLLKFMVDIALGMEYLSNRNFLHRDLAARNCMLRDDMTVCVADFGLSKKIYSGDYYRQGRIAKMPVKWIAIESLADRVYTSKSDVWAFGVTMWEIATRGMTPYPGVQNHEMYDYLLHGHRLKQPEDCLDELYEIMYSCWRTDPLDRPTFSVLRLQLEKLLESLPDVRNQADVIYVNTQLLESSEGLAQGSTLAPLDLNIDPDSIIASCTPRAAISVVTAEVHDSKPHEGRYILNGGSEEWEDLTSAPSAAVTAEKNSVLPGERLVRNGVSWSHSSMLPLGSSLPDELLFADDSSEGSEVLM

kinetic solubility = type: physicochemical; conditions: normal saline, pH 7.4
Molm-14 AML cells = assay: soft agar colony formation, Molm-14; type: cell-based; conditions: 2 weeks, negative control 20 at 50 nM
305 kinases = assay: Carna Biosciences kinome profile at 100 nM; type: biochemical; conditions: in duplicate

| Structure (SMILES) | effect on colony formation in soft agar, A549 NSCLC (A549 NSCLC cells) | decrease of Mer phospho-protein levels in bone marrow leukemia cells (Mer) | solubility kinetic (kinetic solubility) | effect on colony formation in soft agar, Molm-14 AML (Molm-14 AML cells) | number of kinases inhibited by more than 50% (305 kinases) |
| --- | --- | --- | --- | --- | --- |
| CCCCNc1ncc2c(-c3ccc(CN4CCN(C)CC4)cc3)cn([C@H]3CC[C@H](O)CC3)c2n1 [Compound 11] | significant inhibition of colony formation | greater than 90% | 38 µg/mL (≈ 79.7 µM) | significant inhibition of colony formation | Sixty-six |
| CCCCN(C)c1ncc2c(-c3ccc(CN4CCN(C)CC4)cc3)cn([C@H]3CC[C@H](O)CC3)c2n1 [Compound 20] | no significant effect | – | – | no significant effect | – |
